Counter-ions that a name gives are not always drawn.
Legend:
WT HBV = experiment: RNA launch method: inhibition of HBV replication from transfected pgRNA, read out as percent HBsAg (CLIA); type: cell-based; details: HBsAg with vs without inhibitor, FIG. 4
Protocol: The inhibitory effect of three reverse-transcriptase inhibitors, Entecavir (ETV), Tenofovir Disoproxil Fumarate (TDF), and Lamivudine (LAM) on WT HBV was compared. The inhibitory effect of LAM on the HBV viral variant M204V was also measured. The inhibition by the reverse-transcriptase inhibitors was determined as percent HBsAg by comparing the level of HBsAg in the presence and absence of the inhibitors.
HepG2-NTCP or Huh-7.5-NTCP cells were seeded at 2.5×10^5 cells per well in six-well plates two days before transfection. The media was changed to 2 ml DMEM containing 1.5% FBS and 0.1 mM NEAA just before transfection. […]
HBeAg and HBsAg were quantified using a chemiluminescence immunoassay (CLIA) kit (Autobio Diagnostics Co., Zhengzhou, China) according to the manufacturer's instructions. To quantify HBV DNA, total DNA was extracted from infected or RNA-transfected cells using QIAamp DNA Blood Mini Kit (Qiagen, cat. #51106) and HBV DNA was detected by qPCR as previously described (Michalidis et al., Sci Rep. 2017, November 30:7(1):16616). For each experiment, cells were transfected with T7-RFP as a negative control and DNA quantified from these cells was used to define the background. […]

chronic HBV = details: chronically infected patients, injectable; cited from earlier work

Molecule	inhibitory effect on WT HBV (HBV replication, percent HBsAg) (WT HBV)	success rate of curing chronic HBV (chronic HBV) [%]
CC(C)OC(=O)OCOP(=O)(CO[C@H](C)Cn1cnc2c(N)ncnc21)OCOC(=O)OC(C)C [Tenofovir Disoproxil Fumarate]	inhibited HBV replication in a dose-dependent manner	
C=C1[C@H](CO)[C@@H](O)C[C@@H]1n1cnc2c(=O)[nH]c(N)nc21 [Entecavir]	inhibited HBV replication in a dose-dependent manner	
interferon alpha [IFNα]		~10
